Assay: in vitro
Details: male, CD-1, mouse; for Concentration (μM) of analyte PEA, 0 min / Concentration (μM) of analyte PEA, 10 min / Concentration (μM) of analyte PEA, 20 min / Concentration (μM) of analyte PEA, 30 min / Concentration (μM) of analyte PEA, 60 min / % Remaining of Initial (n = 1), 0 min / % Remaining of Initial (n = 1), 10 min / % Remaining of Initial (n = 1), 20 min / % Remaining of Initial (n = 1), 30 min / % Remaining of Initial (n = 1), 60 min / Concentration, analyte PEA / % Remaining of Initial (n = 1): 1 μM
Procedure: (§1) Reaction mixture, minus cofactors, was prepared as described below. Test article was added into the reaction mixture at a final concentration of 1 μM. […] An aliquot of the reaction mixture (without cofactor cocktail) was equilibrated in a shaking water bath at 37° C. for 3 minutes. The reaction was initiated by the addition of cofactor cocktail, and the mixture was incubated in a shaking water bath at 37° C. Aliquots (100 μL) were withdrawn at 0, 10, 20, 30, and 60 minutes. Test article samples were immediately combined with 300 μL of ice-cold acetonitrile containing 1% formic acid. Control samples were immediately combined with 400 μL of ice-cold 50/50 acetonitrile (ACN)/dH2O containing 0.1% formic acid and internal standard to terminate the reaction. Samples were then mixed and centrifuged to precipitate proteins. Calibration standards were prepared in matched matrix. Samples and standards were assayed by LC-MS/MS using electrospray ionization for both the dosed prodrug and the expected drug (PEA). Analytical conditions are outlined in Appendix 8-1. Test article concentration at each time point was compared to test article concentration at time 0 to determine the percent remaining at each time point. Halflives were calculated using GraphPad software, fitting to a single-phase exponential decay equation.
as §1, with “for 5” for “for 3”, “minutes. Reaction” for “minutes. The reaction”, “and” for “and the”, “both” for “both the”, “Appendix 10-1.” for “Appendix 8-1.”
Reaction mixture, minus cofactors, was prepared as described below. Test article was added into the reaction mixture at a final concentration of 1 μM. […] An aliquot of the reaction mixture (without cofactor cocktail) was equilibrated in a shaking water bath at 37° C. for 3 minutes. Reaction was initiated by the addition of cofactor cocktail, and the mixture was incubated in a shaking water bath at 37° C. Aliquots (100 μL) were withdrawn at 0, 10, 20, 30, and 60 minutes. Test article samples were immediately combined with 300 μL of ice-cold acetonitrile containing 1% formic acid. Control samples were immediately combined with 400 μL of ice-cold 50/50 acetonitrile (ACN)/dH2O containing 0.1% formic acid and internal standard to terminate the reaction. Samples were then mixed and centrifuged to precipitate proteins. Calibration standards were prepared in matched matrix. Samples and standards were assayed by LC-MS/MS using electrospray ionization for both dosed prodrug and expected drug (PEA). Analytical conditions are outlined in Appendix 13-1. Test article concentration at each time point was compared to test article concentration at time 0 to determine the percent remaining at each time point. Halflives were calculated using GraphPad software, fitting to a single-phase exponential decay equation.

Row | Concentration (μM) of analyte PEA, 0 min (0 min) | Concentration (μM) of analyte PEA, 10 min (10 min) | Concentration (μM) of analyte PEA, 20 min (20 min) | Concentration (μM) of analyte PEA, 30 min (30 min) | Concentration (μM) of analyte PEA, 60 min (60 min) | % Remaining of Initial (n = 1), 0 min (s9, 0 h) | % Remaining of Initial (n = 1), 10 min (s9, 10 min) | % Remaining of Initial (n = 1), 20 min (s9, 20 min) | % Remaining of Initial (n = 1), 30 min (s9, 0.5 h) | % Remaining of Initial (n = 1), 60 min (s9, 1 h) | microsomal CLint at 1 μM (s9, CLint (mL/min/mg protein)) | half-life at 1 μM (s9, Half-life (min)) | other results | SMILES
1 | 0.0024 µM | 0.12 µM | 0.15 µM | 0.19 µM | 0.23 µM | 100% | 56% | 33% | 21% | 6.5% | 53.7 µL/min/mg | 13 min | – | CCCCCCCCCCCCCCCC(=O)NCCOC(=O)CCC(=O)OCC(O)CO (centres unmarked) [Compound I-9]
2 | 0 µM | 0.021 µM | 0.059 µM | 0.12 µM | 0.084 µM | 100% | <1.0% | <1.0% | <1.0% | <1.0% | > 691 µL/min/mg | < 1 min | – | CCCCCCCCCCCCCCCC(=O)NCCOC(=O)CCC(=O)OCC(COC(=O)CCC)OC(=O)CCC (centres unmarked) [Compound I-11]
3 | – | – | – | – | – | – | – | – | – | – | – | – | Concentration, analyte PEA (0 min): 0.012 µM; Concentration, analyte PEA (10 min): 0.050 µM; Concentration, analyte PEA (20 min): 0.073 µM; Concentration, analyte PEA (30 min): 0.096 µM; Concentration, analyte PEA (60 min): 0.089 µM; % Remaining of Initial (n = 1) (s9, 0 h): 100%; % Remaining of Initial (n = 1) (s9, 10 min): 97%; % Remaining of Initial (n = 1) (s9, 20 min): 71%; % Remaining of Initial (n = 1) (s9, 0.5 h): 81%; % Remaining of Initial (n = 1) (s9, 1 h): 57%; microsomal CLint at 1 μM (s9, CLint): < 11.6 µL/min/mg; microsomal CLint at 1 μM (s9, CLint, calculated (in parentheses)): 9.51 µL/min/mg; half-life at 1 μM (s9, Half-life): > 60 min; half-life at 1 μM (s9, Half-life, calculated (in parentheses)): 73 min | CCCCC/C=C\C/C=C\CCCCCCCC(=O)OCC(COC(=O)CCC(=O)OCCNC(=O)CCCCCCCCCCCCCCC)OC(=O)CCCCCCC/C=C\C/C=C\CCCCC (centres unmarked) [Compound I-13]

From patent publication US11547681B2, “N-acylethanolamide derivatives and uses thereof” (ELIEM THERAPEUTICS, INC., priority 2016, dated 2023)
